The text below walks through data of patent US5482954A, “Signal transduction inhibitor triazole and diazole compounds” (priority 1994, dated 1996).

Where two headings read alike, the source gives them in different places.

The subject of data set [1] is A2058 cells. In words: Proliferation of A2058 cells (monolayer growth, crystal violet). Type of data set: cell-based, human. As to the method: For the clonogenic assay, aliquots of 50,000 cells per well (24 well plates) were grown under standard tissue culture conditions in the presence of increasing doses or test compound (0-10 μg/mL) or vehicle control. After 96 hr, the cells were gently washed with PBS, fixed, and stained with 0.5% crystal violet nuclear stain in 20% methanol. Excess stain was removed with tap water and bound stain was eluted with an equal volume solution of 01N sodium citrate (pH 4.2) and absolute ethanol. Optical density (O.D.) of eluted crystal violet stain was determined at 540 nm. The results of dose-dependent inhibition of tumor cell proliferation by compound 1 are shown in FIG. 5, in which the data are expressed as percent of untreated control cell proliferation for each cell type. The degree of inhibition varied with the cell type and was maximal (76%) for the A2058 cell line.
A2058 human melanoma cells were used to test the effect of compounds 1 and 3-25 on cellular proliferation. The cells were cultured in the presence of the test compounds (10 μM) for 96 hr. fixed and stained with crystal violet as described above. Growth inhibition was determined as a percent of control growth (using either DMSO or PEG-400 as the vehicle) for each compound. Each experiment was run a minimum of three times and the average of the results for each compound is provided in Table H and in FIGS. 20A and 20B.

The test system of data set [2] is 5R ras-transfected rat embryo fibroblasts. Description: AMF-stimulated cell motility. The class given is cell-based. Here is the method:
(§1) The cell motility assay has been described. See, Stracke et al., Biochem. Biophys. Res. Comm., 146:339-345 (1987). Cells from the A2058 human melanoma line which was maintained in subconfluent culture were harvested with trypsin-EDTA, and were allowed to recover for 1 hr at room temperature. Cells from the 5R H-ras transformed (diploid) rat embryo fibroblast line were harvested with 2 mM EDTA in PBS without divalent cations. Cells were resuspended in serum-free media containing 0.1% BSA. This DMEM/0.1% BSA was used as the control for all subsequent assays. The assays were performed in triplicate using a 48-well chemotaxis chamber with 8μ Nucleopore, type IV collagen-coated filters. The chambers were incubated at 37° C. for 4 hr, stained and placed onto glass slides with the original cell side up so that the cell pellet could be wiped from the surface. Cells that had migrated through the pores were trapped between glass and membrane and could be quantitated by laser densitometry.
(§2) Compound 1 was preincubated with the cells for various periods of time, added at the start of the assay, or added later. Additionally, compound 1 remained present during the motility assay. The cells were assayed for their motile response to AMF. AMF stimulates random and directed locomotion of 5R ras-transfected rat embryo fibroblasts and A2058 human melanoma cells. […] Cell viability determined by trypan blue exclusion averaged greater than 96%. Cells exposed to various concentrations of compound 1 were tested for their response to AMF vs. control. Percent stimulated motility (in densitometer units) is defined as: […]
(§3) (AMF stimulated-control)Compound 1 /(AMF stimulated-control)untreated

Data set [3] concerns A2058 human melanoma cells. In words: AMF-stimulated cell motility. Type of data set: cell-based. Here is the method:
as §1, §2, §3

In data set [4] the test system is T-type voltage gated calcium channels. To be noted: Hupe, et al.; cited from earlier work.
Data set [5] concerns MDA-231 human breast cancer cells. In words: AMF-stimulated cell motility. Type of data set: cell-based. To be noted: overnight exposure; data not shown.
The subject of data set [6] is A2058 and 5R cells. In words: Reversibility of inhibition of tumor cell adhesion. Type of data set: cell-based. The settings on record: for activity at 1 µg/mL / activity at 5 µg/mL: Homo sapiens, read-out: Adhesion (% of control). Here is the method: (§4) An adhesion assay was developed using tissue culture plastic petri dishes as the substrate. Aliquots of cells treated similarly to those in the cell motility assay were plated in triplicate onto the dishes and incubated for 90 rain at 37° C. Cells which were either poorly adherent or nonadherent were gently washed off with PBS. The remaining cells were stained with Diff Quik™ (from Baxter Scientific Products, McGaw Park. Ill., USA). Adherence was quantitated using laser densitometry and values were calculated as a percentage of the control adherence.
As with cell motility, the effect of compound 1 on cell adhesion is reversible. A2058 and 5R cells were treated as above for testing the reversibility of cell motility. The resulting "treated" cells (±), "washout" cells (±), and "control" cells were then subjected to the adhesion assay.

For data set [7], the system named is A2058 cells. In words: Cell adhesion to tissue culture plastic. Type of data set: cell-based, human. The settings on record: 0.03-10 μg/mL, 2 to 48 hr preincubation. Here is the method:
as §4
Cells were preincubated with compound 1 (0.03-10 μg/mL) for periods of 2 to 48 hr prior to the adhesion assay. In addition, compound 1 remained present during the assay. […] Maximal inhibition of adhesion was observed following overnight exposure of the cells to compound 1.

Data set [8] is described as follows: Plasma levels in mice (HPLC). Type of data set: in vivo, nude mice. The settings on record: oral. Here is the method:
Murine data: A cohort of nude mice were inoculated with A2058 cells and treated with compound 1 at rates of 100 mg/kg/d and 250 mg/kg/qod. These animals were sacrificed humanely at 4 day intervals beginning 18 hr after oral administration of 1. Plasma was collected and frozen until evaluation by HPLC. Plasma samples were precipitated with 10% trichloroacetic acid and extracted with methylene chloride. The organic extract was evaporated to dryness under a stream of nitrogen, reconstituted and chromatographed by HPLC using an isocratic elution of 70% methanol in 0.1 M ammonium acetate (pH 6.5) on a C-18 analytical column. The lower level of sensitivity of this method is 20 ng/mL. The levels of compound 1 in plasma ranged from 1-5 μg/mL in the 100 mg/kg/d cohort and from 5-10 μg/mL in the 250 mg/kg/qod group. These plasma levels are in the range determined to be biologically significant in the inhibition of signal transduction.

The subject of data set [9] is OVCAR3 human ovarian cancer. Description: Survival after intraperitoneal treatment. Type of data set: in vivo, nude mice. To be noted: 50 mg/kg/d ip. An excerpt: This example illustrates the effect of compound 1 on the survival of nude mice. The mice had been intraperitoneally injected with OVCAR3 human ovarian cancer cells followed, after three weeks, by intraperitoneal injection of 1.
The OVCAR3 human ovarian cancer animal model accurately approximates the clinical presentation of stage III-IV ovarian cancer of peritoneal carcinomatosis. Untreated, OVCAR3 tumor is lethal to nude mice.
Six-week-old nude mice were inoculated intraperitoneally with 3.4×10^7 OVCAR3 human ovarian cancer cells. After a three week period, all animals had grossly distended abdomens due to OVCAR3 ascites. Two groups of animals (four each) were paired for relative severity of ascites and treatment was initiated. Compound 1, 50 mg/kg/d in 60% DMSO (200 μL aliquot) or a vehicle alone, was administered via daily intraperitoneal injection. Overall survival from start of treatment was the study endpoint. Relative survival improvement was calculated as mean treatment group survival divided by mean control group survival.

Where [10] appears, read: overnight preincubation, AMF stimulation.

Turning to `NC(=O)c1nnn(Cc2cc(Cl)c(C(=O)c3ccc(Cl)cc3)c(Cl)c2)c1N` [Compound 1], the “dose dependent inhibition of proliferation” value in data set [1] (FIG. 20A, monolayer growth) is “Dose dependent inhibition of proliferation”. Besides, the activity at 10 µM in data set [1] (Homo sapiens, A2058, Table H, 10 μM, 96 hr, read-out: GROWTH (% OF CONTROL)) came to 36.4 ± 6%. Further, the “inhibition of AMF-stimulated tumor cell motility” value in data set [2] (0.03-10 μg/ml) and in data set [3] (0.03-10 μg/ml) was “inhibited AMF-stimulated tumor cell motility in a dose dependent manner” throughout. Moreover, the “decrease in stimulated motility” value in [2] (setting [10]) and in data set [3] (setting [10]) was “up to 55%” each time. The “inhibition of motility, combination of 1 and PT vs either alone” value in data set [3] (1 (1 μg/ml) + PT (0.1 μg/ml), data not shown, cell line not stated) is listed as “did not result in greater inhibition of motility than either drug alone”. The compound further gave an inhibition of motility in [3] (same dose as PI assay (1.0 μg/mL)) of 45%. For the same compound, the “inhibition of T-type voltage gated calcium channels” value in data set [4] was “inhibit”. Also, the “motile response to AMF” value in [5] is reported as “inhibited”. For the same compound, the “reversibility of adhesion inhibition” value in data set [6] is given as “reversible”. Further, the activity at 1 µg/mL in data set [6] (A2058, 1 μg/mL (+/-)) came to 106%; in data set [6] (A2058, 1 μg/mL (-/+)) it was 33%. Also, the activity at 5 µg/mL in data set [6] (A2058, 5 μg/mL (+/-)) worked out at 96%; in data set [6] (A2058, 5 μg/mL (-/+)) it was 37%. Besides, the “inhibition of cell adhesion” value in data set [7] was “dose-dependent inhibition of cell adhesion”. Further, the results for the level in plasma in data set [8] (100 mg/kg/d) and in data set [8] (250 mg/kg/qod) were 1 to 5 µg/mL and 5 to 10 µg/mL, respectively. Besides, the “increase of overall survival” value in [9] turned out to be 220%. Further, the “overall survival from start of treatment” value in [9] (control 7.25±4.4 days) was 16.0 ± 2.5 days.
